These results are taken from patent publication US9315490B2, “2,5-substituted pyrimidines” (Grünenthal GmbH, priority 2014, dated 2016).

For the first experiment, the target named is T1, human PDE4B1 (Homo sapiens, UniProt Q07343).
T1 construct: host or cells: Sf9 cells
T1 sequence (Q07343 whole entry): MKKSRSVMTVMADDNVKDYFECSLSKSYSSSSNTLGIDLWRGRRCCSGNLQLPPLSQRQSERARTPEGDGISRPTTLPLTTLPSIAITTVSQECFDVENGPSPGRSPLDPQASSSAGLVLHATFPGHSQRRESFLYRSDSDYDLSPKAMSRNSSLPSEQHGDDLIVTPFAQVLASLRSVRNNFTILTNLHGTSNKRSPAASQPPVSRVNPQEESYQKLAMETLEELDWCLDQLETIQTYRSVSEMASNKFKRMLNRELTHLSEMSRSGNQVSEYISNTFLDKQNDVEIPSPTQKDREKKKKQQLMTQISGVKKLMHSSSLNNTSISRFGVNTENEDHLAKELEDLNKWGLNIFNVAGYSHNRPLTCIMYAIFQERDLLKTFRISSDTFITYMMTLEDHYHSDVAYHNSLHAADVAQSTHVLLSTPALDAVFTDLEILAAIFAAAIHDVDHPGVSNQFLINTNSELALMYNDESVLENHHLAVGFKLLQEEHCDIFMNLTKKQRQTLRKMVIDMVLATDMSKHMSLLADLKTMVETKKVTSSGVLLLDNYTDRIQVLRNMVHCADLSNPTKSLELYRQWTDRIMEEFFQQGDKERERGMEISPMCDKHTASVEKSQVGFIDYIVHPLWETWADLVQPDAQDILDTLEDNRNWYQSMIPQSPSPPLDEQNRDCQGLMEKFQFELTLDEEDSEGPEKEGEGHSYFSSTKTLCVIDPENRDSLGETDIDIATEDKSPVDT
In words: cAMP HTRF assay to determine the activity of hPDE4B1. The class given is biochemical. The note with it: inhibition of PDE4B at a test concentration of 1 μM. As for the experimental part:
Biological Testing cAMP HTRF® Assay to Determine the Activity of hPDE4B1
The inhibiting effect of the compounds on the enzyme activity of human PDE4B1 was measured by the quantification of 5′-adenosine monophosphate (5′-AMP), which is formed from 3′,5′-cyclic adenosine monophosphate (cAMP). Human recombinant enzyme, expressed in Sf9 cells, and the HTRF (homogeneous time-resolved fluorescence) detection method were used in the assay.
The test compound or water (control) was mixed with the human recombinant PDE4B1 enzyme (4.8 U) in a buffer consisting of 44.4 mM tris-HCl, 5.28 mM MgCl2, 2.64 mM DTT and 0.044% Tween 20 (pH 7.8). After adding the cAMP enzyme substrate (final concentration 40 nM), the mixture was incubated for 30 minutes at room temperature. Then a fluorescence acceptor (Dye2 marked with cAMP), a fluorescence donor (anti-cAMP antibody marked with a europium cryptate) and the non-specific phosphodiesterase inhibitor IBMX (3-isobutyl-1-methylxanthine; final concentration 1 mM) were added. After 60 minutes the fluorescence transfer, which correlates with the amount of remaining cAMP, was measured with a microplate reader (Rubystar, BMG) at λex=337 nm, λem=620 nm and λem=665 nm. The enzyme activity was calculated from the quotient formed from the measured signal at 665 nm and that at 620 nm. The result was expressed as the percentage inhibition of enzyme activity of the control (without PDE4 inhibitor). The enzyme was omitted for measurement of the basal control. IC50 values (IC50=concentration causing a half-maximal inhibition of control specific activity) were derived from dose response measurements with eight different concentrations (n=2; N=1-3).
Literature: N. Saldou et al., Comparison of recombinant human PDE4 isoforms: interaction with substrate and inhibitors, Cell. Signal. Vol. 10, No. 6, 427-440, 1998
A general note: In TR-FRET formats the signal depends on donor and acceptor labels being close together.
In general, inhibition refers to the drop in the measured response relative to a control, in per cent. For `CC1CC(C)CN(C(=O)c2ccc3c([S+](C)[O-])cn(-c4ncc(-c5ccccc5F)cn4)c3c2)C1` (single isomer, unassigned) [Example 372, (3,5-Dimethylpiperidin-1-yl)(1-(5-(2-fluorophenyl)pyrimidin-2-yl)-3-(methylsulfinyl)-1H-indol-6-yl)methanone], the inhibition at 1 µM stood at 40%.
With `C[S+]([O-])c1cn(-c2ncc(-c3ccccc3F)cn2)c2cc(C(=O)N3CCOCC3)ccc12` (stereo not shown) [Example 1, (1-(5-(2-fluorophenyl)pyrimidin-2-yl)-3-(methylsulfinyl)-1H-indol-6-yl)(morpholino)methanone], the inhibition at 1 µM amounted to 104%.
Same read-out and setting: the value for `C[S+]([O-])c1cn(-c2ncc(-c3ccc(C(N)=O)cc3F)cn2)c2cc(C(=O)N3CCNCC3)ccc12` (stereo not shown) [Example 15, 3-Fluoro-4-(2-(3-(methylsulfinyl)-6-(piperazine-1-carbonyl)-1H-indol-1-yl)pyrimidin-5-yl)benzamide] was 44%; that for `CS(=O)(=O)c1cn(-c2ncc(-c3ccccc3)cn2)c2cc(C(=O)N3CCNCC3)ccc12` [Example 21, (3-(Methylsulfonyl)-1-(5-phenylpyrimidin-2-yl)-1H-indol-6-yl)(piperazin-1-yl)methanone] was 32%; that for `CC(O)c1cn(-c2ncc(-c3ccccc3F)cn2)c2cc(C(=O)N3CCOCC3)ccc12` (stereo not shown) [Example 28, (1-(5-(2-fluorophenyl)pyrimidin-2-yl)-3-(1-hydroxyethyl)-1H-indol-6-yl)(morpholino)methanone] was 98%.
Still for that read-out and setting: the figure for `C[S+]([O-])c1cn(-c2ncc(-c3cccc(F)c3F)cn2)c2cc(C(=O)N3CCOCC3)ccc12` (stereo not shown) [Example 30, (1-(5-(2,3-Difluorophenyl)pyrimidin-2-yl)-3-(methylsulfinyl)-1H-indol-6-yl)(morpholino)methanone] is 106%.
Same read-out and setting: the value for `C[S+]([O-])c1cn(-c2ncc(-c3ccc(C#N)cc3)cn2)c2cc(C(=O)N3CCOCC3)ccc12` (stereo not shown) [Example 31, 4-(2-(3-(Methylsulfinyl)-6-(morpholine-4-carbonyl)-1H-indol-1-yl)pyrimidin-5-yl)benzonitrile] was 75%; that for `C[S+]([O-])c1cn(-c2ncc(-c3ccc(F)cc3)cn2)c2cc(C(=O)N3CCOCC3)ccc12` (stereo not shown) [Example 32, (1-(5-(4-Fluorophenyl)pyrimidin-2-yl)-3-(methylsulfinyl)-1H-indol-6-yl)(morpholino)methanone] was 80%; that for `COc1ccc(-c2cnc(-n3cc([S+](C)[O-])c4ccc(C(=O)N5CCOCC5)cc43)nc2)cc1` (stereo not shown) [Example 33, (1-(5-(4-Methoxyphenyl)pyrimidin-2-yl)-3-(methylsulfinyl)-1H-indol-6-yl)(morpholino)methanone] was 88%.
For `C[S+]([O-])c1cn(-c2ncc(-c3cccc(F)c3)cn2)c2cc(C(=O)N3CCOCC3)ccc12` (stereo not shown) [Example 34, (1-(5-(3-Fluorophenyl)pyrimidin-2-yl)-3-(methylsulfinyl)-1H-indol-6-yl)(morpholino)methanone], the inhibition at 1 µM came out at 90%.
The same measure, in the same setting: the value for `C[S+]([O-])c1cn(-c2ncc(-c3cccc(C(N)=O)c3)cn2)c2cc(C(=O)N3CCOCC3)ccc12` (stereo not shown) [Example 35, 3-(2-(3-(Methylsulfinyl)-6-(morpholine-4-carbonyl)-1H-indol-1-yl)pyrimidin-5-yl)benzamide] was 67%.
The same measure, in the same setting: the figure for `C[S+]([O-])c1cn(-c2ncc(-c3cccc(S(C)(=O)=O)c3)cn2)c2cc(C(=O)N3CCOCC3)ccc12` (stereo not shown) [Example 36, (3-(Methylsulfinyl)-1-(5-(3-(methylsulfonyl)phenyl)pyrimidin-2-yl)-1H-indol-6-yl)(morpholino)methanone] is 90%; for `Cc1cccc(-c2cnc(-n3cc([S+](C)[O-])c4ccc(C(=O)N5CCOCC5)cc43)nc2)c1` (stereo not shown) [Example 37, (3-(Methylsulfinyl)-1-(5-(m-tolyl)pyrimidin-2-yl)-1H-indol-6-yl)(morpholino)methanone] it is 103%; for `COc1ccc(F)c(-c2cnc(-n3cc([S+](C)[O-])c4ccc(C(=O)N5CCOCC5)cc43)nc2)c1` (stereo not shown) [Example 38, (1-(5-(2-Fluoro-5-methoxyphenyl)pyrimidin-2-yl)-3-(methylsulfinyl)-1H-indol-6-yl)(morpholino)methanone] it is 102%.
Still for that read-out and setting: the figure for `COc1ccc(-c2cnc(-n3cc([S+](C)[O-])c4ccc(C(=O)N5CCOCC5)cc43)nc2)c(F)c1` (stereo not shown) [Example 39, (1-(5-(2-Fluoro-4-methoxyphenyl)pyrimidin-2-yl)-3-(methylsulfinyl)-1H-indol-6-yl)(morpholino)methanone] is 105%; for `C[S+]([O-])c1cn(-c2ncc(-c3cccc(C#N)c3)cn2)c2cc(C(=O)N3CCOCC3)ccc12` (stereo not shown) [Example 40, 3-(2-(3-(Methylsulfinyl)-6-(morpholine-4-carbonyl)-1H-indol-1-yl)pyrimidin-5-yl)benzonitrile] it is 93%.
`C[S+]([O-])c1cn(-c2ncc(-c3cc(O)ccc3F)cn2)c2cc(C(=O)N3CCOCC3)ccc12` (stereo not shown) [Example 41, (1-(5-(2-Fluoro-5-hydroxyphenyl)pyrimidin-2-yl)-3-(methylsulfinyl)-1H-indol-6-yl)(morpholino)methanone]: the inhibition at 1 µM is 100%.
The same measure, in the same setting: the value for `C[S+]([O-])c1cn(-c2ncc(-c3ccc(C(N)=O)cc3)cn2)c2cc(C(=O)N3CCOCC3)ccc12` (stereo not shown) [Example 42, 4-(2-(3-(Methylsulfinyl)-6-(morpholine-4-carbonyl)-1H-indol-1-yl)pyrimidin-5-yl)benzamide] was 86%.
`C[S+]([O-])c1cn(-c2ncc(-c3cc(C(N)=O)ccc3F)cn2)c2cc(C(=O)N3CCOCC3)ccc12` (stereo not shown) [Example 43, 4-Fluoro-3-(2-(3-(methylsulfinyl)-6-(morpholine-4-carbonyl)-1H-indol-1-yl)pyrimidin-5-yl)benzamide]: the inhibition at 1 µM came to 83%.
The same measure, in the same setting: the value for `C[S+]([O-])c1cn(-c2ncc(-c3c(F)cccc3F)cn2)c2cc(C(=O)N3CCOCC3)ccc12` (stereo not shown) [Example 44, (1-(5-(2,6-Difluorophenyl)pyrimidin-2-yl)-3-(methylsulfinyl)-1H-indol-6-yl)(morpholino)methanone] was 82%; that for `COc1cccc(-c2cnc(-n3cc([S+](C)[O-])c4ccc(C(=O)N5CCOCC5)cc43)nc2)c1` (stereo not shown) [Example 45, (1-(5-(3-Methoxyphenyl)pyrimidin-2-yl)-3-(methylsulfinyl)-1H-indol-6-yl)(morpholino)methanone] was 115%.
On the same count and under the same terms, the figure for `Cc1ccc(-c2cnc(-n3cc([S+](C)[O-])c4ccc(C(=O)N5CCOCC5)cc43)nc2)cc1` (stereo not shown) [Example 46, (3-(Methylsulfinyl)-1-(5-(p-tolyl)pyrimidin-2-yl)-1H-indol-6-yl)(morpholino)methanone] is 102%.
On the same count and under the same terms, the value for `C[S+]([O-])c1cn(-c2ncc(-c3ccncc3)cn2)c2cc(C(=O)N3CCOCC3)ccc12` (stereo not shown) [Example 47, (3-(Methylsulfinyl)-1-(5-(pyridin-4-yl)pyrimidin-2-yl)-1H-indol-6-yl)(morpholino)methanone] was 61%; that for `C[S+]([O-])c1cn(-c2ncc(-c3cccnc3F)cn2)c2cc(C(=O)N3CCOCC3)ccc12` (stereo not shown) [Example 48, (1-(5-(2-Fluoropyridin-3-yl)pyrimidin-2-yl)-3-(methylsulfinyl)-1H-indol-6-yl)(morpholino)methanone] was 63%; that for `C[S+]([O-])c1cn(-c2ncc(-c3cccnc3)cn2)c2cc(C(=O)N3CCOCC3)ccc12` (stereo not shown) [Example 49, (3-(Methylsulfinyl)-1-(5-(pyridin-3-yl)pyrimidin-2-yl)-1H-indol-6-yl)(morpholino)methanone] was 72%.

Still in this experiment, the particulars now being: inhibition of PDE4B at a test concentration of 1 μM, 1 µM.
As for `CC1CC(C)CN(C(=O)c2ccc3c([S+](C)[O-])cn(-c4ncc(-c5ccccc5F)cn4)c3c2)C1` (single isomer, unassigned) [Example 373, (3,5-Dimethylpiperidin-1-yl)(1-(5-(2-fluorophenyl)pyrimidin-2-yl)-3-(methylsulfinyl)-1H-indol-6-yl)methanone], the Inhibition in % was determined as 36%.
`CC1CN(C(=O)c2ccc3c([S+](C)[O-])cn(-c4ncc(-c5ccccc5F)cn4)c3c2)CC(C)O1` (single isomer, unassigned) [Example 377, (2,6-Dimethylmorpholino)(1-(5-(2-fluorophenyl)pyrimidin-2-yl)-3-(methylsulfinyl)-1H-indol-6-yl)methanone] gave an Inhibition in % of 70%.
Take `CC1CN(C(=O)c2ccc3c([S+](C)[O-])cn(-c4ncc(-c5ccccc5F)cn4)c3c2)CC(C)O1` (single isomer, unassigned) [Example 378, (2,6-Dimethylmorpholino)(1-(5-(2-fluorophenyl)pyrimidin-2-yl)-3-(methylsulfinyl)-1H-indol-6-yl)methanone]: the Inhibition in % is reported as 31%.
